# Experimental data: ChEMBL document CHEMBL4665694, “Integrating the Impact of Lipophilicity on Potency and Pharmacokinetic Parameters Enables the Use of Diverse Chemical Space during Small Molecule Drug Optimization” (J Med Chem, 2020)
# Assays:
# Assay type in all cases: ADME
# [1] = Fraction unbound in human
# [2] = Unbound clearance in human
# [3] = Unbound AUC in human administered as single dose
# [4] = Clearance in human
# [5] = Volume of distribution at steady state in human; details: read-out: Vdss
# [6] = Unbound volume of distribution at steady state in human
# [7] = Half life in human
# [8] = AUC in human administered as single dose
# [9] = AUC at steady state in human administered as single dose
# [10] = Unbound AUC at steady state in human administered as single dose
smiles,measurement,setting,value
OC(Cn1cncn1)(Cn1cncn1)c1ccc(F)cc1F [FLUCONAZOLE],fraction unbound,[1],0.9
same,CL free,[2],1 mL/min/kg
same,fAUC,[3],90000 ng·h/mL
same,clearance,[4],0.9 mL/min/kg
same,Vd,[5],0.9 L/kg
same,fVdss,[6],1 L/kg
same,half-life,[7],32 h
same,AUC,[8],100000 ng·h/mL
CCC(C)n1ncn(-c2ccc(N3CCN(c4ccc(OCC5COC(Cn6cncn6)(c6ccc(Cl)cc6Cl)O5)cc4)CC3)cc2)c1=O (stereo unspecified) [ITRACONAZOLE],fraction unbound,[1],≤ 0.002
same,CL free,[2],> 2700 mL/min/kg
same,AUC,[9],23000 ng·h/mL
same,fAUC,[10],50 ng·h/mL
same,clearance,[4],5.4 mL/min/kg
same,Vd,[5],11 L/kg
same,fVdss,[6],> 5000 L/kg
same,half-life,[7],23 h
